The text below walks through data of patent US12414960B2, “Analogues of oleuropein and oleacein and uses thereof” (Attica Sciences Ltd., priority 2020, dated 2025).

A word on the inhibition: it is the percentage by which the read-out fell short of the control.

For data set [1], the system named is MCF-7 ER+ breast cancer cells. In words: XTT cell growth assay, MCF-7 ER+. The class given is cell-based, human. As to conditions: Homo sapiens, MCF7, 24 h, NS = not statistically significant, read-out: Effectiveness to suppress MCF7 cell growth (cell growth inhibition). An excerpt: (§1) The XTT assay is used to measure cellular metabolic activity as an indicator of cell viability, proliferation and cytotoxicity. This non-radioactive, colorimetric assay system was first described by Scudiero, et al. in 1988 (Paull, Kenneth D. et al., J Heterocycl Chem, 1988, 25: 911-914; Scudiero, Dominic A. et al., Cancer Res, 1988, 48: 4827-4833) and improved in subsequent years by several other investigators (Weislow, Owen S. et al., J Natl Cancer Inst, 1989, 81(8): 577-586; Roehm, N. W. et al., J Immunol Methods, 1991, 142: 257-265).
(§2) The XTT assay is based on the reduction of a yellow tetrazolium salt (sodium 3′-[1-(phenylaminocarbonyl)-3,4-tetrazolium]-bis (4-methoxy6-nitro) benzene sulfonic acid hydrate or XTT) to an orange formazan dye by metabolically active cells (FIG. 8). The formazan dye formed is soluble in aqueous solutions and is directly quantified using a scanning multiwell spectrophotometer (ELISA reader). An increase in number of living cells results in an increase in the overall activity of mitochondrial dehydrogenases in the sample. This increase directly correlates to the amount of orange formazan formed, as monitored by the absorbance. Reduced number of living cells leads to reduced metabolism of quaternary salt and therefore reduced absorption.
(§3) Cell viability was assessed using the XTT assay kit (Roche, Mannheim, Germany) as described previously (Kouka, Paraskevi et al., Oxid Med Cell Longev. 2019, Article ID 1870965). Briefly, cancer cells per well were cultured in a 96-well plate in Dulbecco's modified Eagle's medium (DMEM). Following a 24 h incubation, 5, 10 and 50 μM of the tested GS compound was diluted in a serum-free DMEM and administered for 24 h. Subsequently, 50 μL of the XTT reagent (50:1) was added to each well. After 4 h of incubation, the absorbance was monitored at 450 nm and also at 630 nm as a reference wavelength in a BioTek ELx800 microplate reader (BioTek Instruments Inc., Winooski, VT, USA). As a negative control, samples containing serum-free DMEM only were used.
MCF-7 ER+ is a human breast cancer cell line isolated in 1970 from a person. Prior to MCF-7, it was not possible for cancer researchers to obtain a mammary cell line that was capable of living longer than a few months.
(§4) The effects of exemplary compounds on cancer cell lines and one non-tumorigenic cell line (control) were investigated using a high throughput screening assay. More specifically, the effects of the GS compounds on cell growth was evaluated by the XTT assay for cell lines HepG2, HeLa, MCF7 ER+, MDA-MB-231, and MKN-45, and by the Cell Glo luminescence assay for cell lines MIA PaCa-2, HCT-116, MCF-10A, and PANC-1.

Data set [2] in a line: ABTS radical cation scavenging assay. Conditions: NS = not statistically significant. It is filed as biochemical. From the text:
The method of estimating antioxidant capacity, based on the ability to interact with the ABTS.+ radical cation was first performed by Miller et al. in 1993 (Miller, Nicholas et al., Clinical Science, 1993, 84: 407-412, “A novel method for measuring the antioxidant capacity and its application to monitoring the antioxidant status in premature neonates”). The mechanism of interaction of the antioxidant agents to be examined with the ABTS.+ radical is similar to that of the DPPH. radical, which can be inactivated either by the addition of an electron or by the addition of a hydrogen atom. However, unlike the DPPH. radical, which is a stable radical from the beginning, the ABTS.+ radical must be produced by the oxidation of ABTS. Thus, in order to estimate the antioxidant capacity of a substance, the formation of the ABTS.+ radical must first precede and the addition of the substance to be examined must follow. The addition of the antioxidant agent is performed after the production of the root ABTS.+ to avoid the interaction of the antioxidant agents with the oxidizing agents used for the oxidation of ABTS.
The oxidation of ABTS takes place either through chemical reactions with various reagents or through the action of enzymes such as peroxidases. The ABTS.+ radical from the moment it is formed is stable, has a green color and absorbs at 730 nm. When a substance with antioxidant activity is added to the solution, then the ABTS.+ radical is reduced by the addition of a hydrogen (or electron) atom, resulting in reduced visual absorption.
To assess the antioxidant capacity of the samples, the oxidation of ABTS was performed enzymatically through the action of horseradish peroxidase (HRP), in the presence of H2O2 (FIG. 3)
The anti-oxidant capacity of the GS compounds was evaluated by performing the ABTS assay as previously described (Kouka, Paraskevi et al., Oxid Med Cell Longev. 2019, Article ID 1870965). Briefly, in a total reaction volume of 1 mL in distilled water (dH2O), ABTS.^+ (1 mM), H2O2 (30 μM), and horseradish peroxidase (HRP) (6 μM) in 50 mM phosphate-buffered saline were added. The solution was incubated for 45 min at room temperature (RT) in the dark. Finally, 10 μL of the tested GS compound at various concentrations was added, and the absorbance was monitored on a Hitachi U-1900 radio beam spectrophotometer (serial no. 2023-029; Hitachi Ltd.) at 730 nm. In each experiment, a blank without the HRP was used, while the ABTS.^+ radical solution without the extract was used as the control. The RSC percentage of the tested extracts was calculated using the following equation: RSC (%)=[(ODcontrol−ODcompound)/ODcontrol]×100, where ODcontrol and OD sample are the optical density (OD) values of the control and the test sample, respectively.

The test system of data set [3] is HepG2 liver cancer cells. Nature of the data set: XTT cell growth assay, HepG2. It is filed as cell-based, human. Conditions: Homo sapiens, HepG2, 24 h, NS = not statistically significant, read-out: Effectiveness to suppress HepG2 cell growth (cell growth inhibition).
Description: as §1, §2, §3
Hep G2 (or HepG2) is a human liver cancer cell line. Hep G2 is an immortal cell line which was derived from the liver tissue of an adolescent with a well-differentiated hepatocellular carcinoma. Hep G2 cells are a suitable in vitro model system for the study of polarized human hepatocytes.
as §4

The test system of data set [4] is HCT-116 colon cancer cells. Nature of the data set: Cell Glo luminescence cell growth assay, HCT-116. Conditions: Homo sapiens, HCT-116, 24 h, NS = not statistically significant, read-out: Effectiveness to suppress HCT-116 cell growth (cell growth inhibition). It is filed as cell-based, human.
Description: (§5) The CellTiter-Glo® Luminescent Cell Viability Assay (Promega Corporation; Madison, WI) is a homogeneous method of determining the number of viable cells in culture based on quantitation of the ATP present, an indicator of metabolically active cells. The homogeneous assay procedure involves adding the single reagent (CellTiter-Glo® Reagent) directly to cells cultured in serum-supplemented medium. The homogeneous “add-mix-measure” format results in cell lysis and generation of a luminescent signal proportional to the amount of ATP present. The amount of ATP is directly proportional to the number of cells present in culture.
Cancer cells (3,000 cells/well) were harvested in a 96-well plate. Then, the cancer cells were treated with GS compounds and incubated for 24 hours. The MT Cell Viability Substrate, NanoLuc® Enzyme and cell culture medium was equilibrated to 37° C. The 2× RealTime-Glo™ reagent was prepared by diluting the MT Cell Viability Substrate and NanoLuc® Enzyme in 37° C. cell culture medium to a 2× concentration for each reagent. For example, 1 mL of 2× RealTime-Glo™ reagent was prepared by adding 2 μL of MT Cell Viability Substrate, 1,000×, and 2 μL of NanoLuc® Enzyme, 1,000×, to 996 μL of cell culture medium to form the 2× RealTime-Glo™ reagent. Then, an equal volume of 2× RealTime-Glo™ reagent was added to the cancer cells. The cells were kept for ˜20 minutes in the cell culture incubator and then luminescence was measured by using a plate-reading luminometer.
HCT-116 is a human colorectal cancer cell lines that has a mutation in RAS proto-oncogene.
as §4

In data set [5] the test system is HeLa cervical cancer cells. In words: XTT cell growth assay, HeLa. It is filed as cell-based, human. As to conditions: Homo sapiens, HeLa, 24 h, NS = not statistically significant, read-out: Effectiveness to suppress HeLa cell growth (cell growth inhibition).
Description: as §1, §2, §3
HeLa is a human immortal cell line used in scientific research. It is the oldest and most commonly used human cell line. The line was derived from cervical cancer cells taken on Feb. 8, 1951 from Henrietta Lacks, a patient who died of cancer on Oct. 4, 1951.
as §4
In general terms: Tetrazolium dyes change colour on reduction, which living cells bring about.

The subject of data set [6] is MDA-MB-231 triple negative breast cancer cells. In words: XTT cell growth assay, MDA-MB-231. It is filed as cell-based, human. Conditions: Homo sapiens, MDA-MB-231, 24 h, NS = not statistically significant, read-out: Effectiveness to suppress MDA-MB-231 cell growth (cell growth inhibition).
Description: as §1, §2, §3
MDA-MB-231 is a human epithelial breast cancer cell line that was established from a pleural effusion of a person with a metastatic mammary adenocarcinomal and is one of the most commonly used breast cancer cell lines in medical research laboratories.
as §4

Data set [7] concerns MCF-10A non-tumorigenic mammary epithelial cells. In words: Cell Glo luminescence cell growth assay, MCF-10A normal cells. The class given is cell-based, human.
Description: as §5
Cancer cells (3,000 cells/well) were harvested in a 96-well plate. Then, the cancer cells were treated with GS compounds and incubated for 24 hours. The MT Cell Viability Substrate, NanoLuc® Enzyme and cell culture medium was equilibrated to 37° C. The 2× RealTime-Glo™ reagent was prepared by diluting the MT Cell Viability Substrate and NanoLuc® Enzyme in 37° C. cell culture medium to a 2× concentration for each reagent. […] The cells were kept for ˜20 minutes in the cell culture incubator and then luminescence was measured by using a plate-reading luminometer. […]
The effects of exemplary compounds on cancer cell lines and one non-tumorigenic cell line (control) were investigated using a high throughput screening assay. More specifically, the effects of the GS compounds on cell growth was evaluated by the XTT assay for cell lines HepG2, HeLa, MCF7 ER+, MDA-MB-231, and MKN-45, and by the Cell Glo luminescence assay for cell lines MIA PaCa-2, HCT-116, MCF-10A, and PANC-1. […]
The effect of GS27 on normal cell growth was evaluated using the MCF-10A cell line. […]
GS27, NDI-091143 and Nexletol (10 μM) were used to treat normal epithelial cells MCF-10A cells. […] Forty-eight hours post-treatment, the growth of MCF-10A cells was evaluated by CellTiter-Glo® Luminescent Cell Viability Assay, as discussed in Example 29.

The nature of data set [8]: Deoxyribose degradation assay (hydroxyl radical scavenging). It is filed as biochemical. Conditions: NS = not statistically significant. On the procedure: The hydroxyl radical (OH.) is an extremely reactive in biological systems and has been implicated as highly damaging species in free radical pathology, capable of damaging biomolecules of the living cells. These radical combines with nucleotides in DNA and cause strand breakage leading to carcinogenesis, mutagenesis and cytotoxicity. Hydroxyl radical (OH.) scavenging capacity of an extract is directly related to its antioxidant activity.
The effect of extracts on hydroxyl radicals was assayed by using the deoxyribose method. 2-Deoxyribose is degraded on exposure to hydroxyl radicals generated by Fenton's reaction. The ability to neutralize the OH. is estimated as the rate of inhibition of the oxidation of 2-deoxyribose by the OH. (FIG. 5).
The measurement of the hydroxyl radical scavenging activity was evaluated for each of the GS compound by evaluating the pink chromogen absorption at 532 nm by spectrophotometry as described previously (Perjesi, Pal et al., Open Med Chem J., 2011, 5: 61-67

Data set [9] relates to MKN-45 gastric cancer cells. Nature of the data set: XTT cell growth assay, MKN-45. It is filed as cell-based, human. As to conditions: Homo sapiens, MKN-45, 24 h, NS = not statistically significant, read-out: Effectiveness to suppress MKN-45 cell growth (cell growth inhibition).
Description: as §1, §2, §3
MKN-45 is a human gastric adenocarcinoma, established from the poorly differentiated adenocarcinoma of the stomach (medullary type) of a person.
as §4

Regarding `C/C=C1/[C@H](OC2OC(CO)C(O)C(O)C2O)OC=C(C(=O)O)[C@H]1CC(=O)OCCc1cccc(O)c1` (stereo in doubt) [GS14, (2S,4S,E)-3-ethylidene-4-(2-(3-hydroxyphenethoxy)-2-oxoethyl)-2-{[(2R,3S,4R,5R,6S)-3,4,5-trihydroxy-6-(hydroxymethyl)tetrahydro-2H-pyran-2-yl]oxy}-3,4-dihydro-2H-pyran-5-carboxylic acid], the inhibition at 50 µM in data set [1] is 28.4%; in data set [3], 10%; in [5], 29.5%; in data set [6], 38.2%. For the same molecule, in [2], the “ABTS Radical Cation Scavenging Assay IC50” value is on record as 66 μg extract/mL. Besides, the inhibition at 1 µM in data set [4] came to 26.4%.
On to `C/C=C(/C=O)[C@@H](CC=O)CC(=O)OC` [GS16, (3S,4E)-4-Formyl-3-(2-oxoethyl)hex-4-enoic acid methyl ester], for which the inhibition at 50 µM was found to be 26.6% in [1], 72.6% in data set [5] and 35% in data set [6]. Also, in data set [7] (Homo sapiens, MCF-10A, 10 uM, 24 h, normal cells, safety control, NS = not statistically significant, read-out: Effectiveness to suppress MCF10A cell growth (cell growth inhibition)), the inhibition at 10 µM was 10.1%.
Turning to `CC(C)(CCCCCC(O)CCCCCC(C)(C)C(=O)O)C(=O)O` [Nexletol, reference compound], in [7] (10 μM, forty-eight hours post-treatment), the “effect on MCF-10A normal cell growth” value is on record as “inhibitory effect”.
Turning to `C/C=C(/C=O)[C@@H](CC=O)CC(=O)OCCc1cccc(O)c1` [GS20, (3S,4E)-4-formyl-3-(2-oxoethyl)-4-hexenoic acid 3-hydroxyphenethyl ester], the inhibition at 50 µM came out at 36.1% in data set [1]; 50% in [3]; 56.4% in data set [5]; 56.4% in [6]; 84.1% in data set [9]. The “ABTS Radical Cation Scavenging Assay IC50” value in [2] was determined as 50.2 μg extract/mL. The “Deoxyribose Degradation Assay IC50” value in data set [8] is on record as 20 μg extract/mL.
